# Data as given in patent US7517998B2, “Non nucleoside reverse transcriptase inhibitors” (priority 2004, dated 2009).
# Target: T1, K103NNY181C mutant reverse transcriptase (Human immunodeficiency virus type 1 group M subtype B, UniProt P04585, K690N/Y768C)
# T1 construct: mutations that occur in the reverse transcriptase segment of the pol gene
# Experiment: Reverse transcriptase enzymatic assay (PicoGreen), K103N/Y181C mutant RT
# Format: biochemical, HIV-1
# Conditions: IC50 mut (nM), mutant (K103N/Y181C) reverse transcriptase, enzymatic assay of Example 24
# Procedure: The enzymatic assay employed is described as follows: The reverse transcriptase (RT) enzyme assay has been adapted to a 96-well microtiter plate format and uses PicoGreen™ as a fluorescent intercalator. More explicitly, the HIV-1 RT enzyme was thawed and appropriately diluted into Tris/HCl 50 mM pH 7.8 containing NaCl 60 mM, MgCl2.6H2O 2 mM, DTT 6 mM, GSH 2 mM and 0.02% w/v Chaps to give ≈10 nM enzyme. To 10 μL of this enzyme solution was added 10 μL of inhibitor solution (40 μM to 2.032 nM inhibitor in the same assay buffer as above containing 4% v/v DMSO). The plate was pre-incubated for 15 minutes at room temperature before proceeding to the next step. In this pre-incubation step, the highest and lowest inhibitor concentrations were 20 μM and 1.016 nM respectively and the concentration of DMSO was 2% v/v. Then the enzymatic reaction was initiated by addition of 20 μL of substrate solution. The final reaction mixture contained Tris/HCl 50 mM pH 7.8, NaCl 60 mM, MgCl2.6H2O 2 mM, DTT 6 mM, GSH 2 mM, CHAPS 0.02% w/v, DMSO 1% v/v, poly rC 45 nM, dG15 4.5 nM, dGTP 3.6 μM, and 2.5 nM enzyme. In this incubation step, the highest and lowest inhibitor concentrations were 10 μM and 0.508 nM respectively. After addition of the substrate cocktail, the plate was covered with a plastic seal and incubated for 50 minutes at 37° C. in a dry incubator. The reaction was then quenched by addition of 5 μL of EDTA 0.5 M. The plate was shaken for 30 seconds at medium speed and incubated for 5 minutes at room temperature. Then 160 μL of PicoGreen™ 1:400 dilution from commercial stock (diluted in Tris 20 mM pH 7.5 with EDTA 1 mM) was added and the plate was shaken for 30 seconds and incubated for 10 minutes at room temperature. The plate was then analyzed using a POLARstar Galaxy fluorometer (BMG Labtechnologies) with λex and λem of 485 nm and 520 nm respectively. Each well was read for 1.25 second. Each row contained at its extremities a blank and a control well.
row,SMILES,IC50
1,CC(C)(C)c1ccc(-n2nnnc2SCC(=O)Nc2ccc(NC(=O)c3cccc(C(=O)O)c3)cc2Cl)c(Cl)c1 [Compound 7027],134 nM
2,COC(C(=O)Nc1ccc(NC(=O)CSc2nnnn2-c2ccc(C(C)(C)C)cc2Cl)c(Cl)c1)c1ccccc1 (centres unmarked) [Compound 7039],89.5 nM
3,CC(C)(C)c1ccc(-n2nnnc2SCC(=O)Nc2ccc(NC(=O)Cc3ccncc3)cc2Cl)c(Cl)c1 [Compound 7030],38 nM
4,CC(C)(C)c1ccc(-n2nnnc2SCC(=O)Nc2ccc(NC(=O)Cn3cnnn3)cc2Cl)c(Cl)c1 [Compound 7040],42.5 nM

# Same assay, conditions: IC50 mut, K103N/Y181C mutant reverse transcriptase, enzymatic assay of Example 24
row,SMILES,IC50
1,CC(C)(C#Cc1ccc(NC(=O)CSc2nnnn2-c2cc(C3CC3)ccc2Cl)c(Cl)c1)NC(=O)CN1CCNCC1 [Compound 4195],22.5 nM
2,CC(C)(C#Cc1ccc(NC(=O)CSc2nnnn2-c2cc(Br)ccc2Cl)c(Cl)c1)NC(=O)c1cc[n+]([O-])cc1 [Compound 4222],11.5 nM
3,O=C(CSc1nnnn1-c1ccc(C2CC2)cc1Cl)Nc1ccc(C#CC2(CN3CCCC3)CC2)cc1Cl [Compound 4092],61.5 nM
4,CC(C)(C#Cc1ccc(NC(=O)CSc2nnnn2-c2ccc(C(C)(C)C)cc2Cl)c(Cl)c1)OCC(=O)Nc1ccc(/C=C/C(=O)O)cc1 [Compound 4026],63 nM
5,CC(C)(C#Cc1ccc(NC(=O)CSc2nnnn2-c2cc(C(C)(C)C)ccc2Cl)c(Cl)c1)NC(=O)c1cc[n+]([O-])cc1 [Compound 4205],28.5 nM
6,CC(CC(=O)O)NC(=O)COC(C)(C)C#Cc1ccc(NC(=O)CSc2nnnn2-c2ccc(C(C)(C)C)cc2Cl)c(Cl)c1 (centres unmarked) [Compound 4046],23 nM
7,CC(C)(C#Cc1ccc(NC(=O)CSc2nnnn2-c2ccc(C3CC3)cc2Cl)c(Cl)c1)C(=O)NCc1cc[n+]([O-])cc1 [Compound 4148],11 nM
8,CC(C)(C#Cc1ccc(NC(=O)CSc2nnnn2-c2ccc(C3CC3)cc2Cl)c(Cl)c1)OCCNC1CC1 [Compound 4117],52 nM
9,CN1CCN(CC#Cc2ccc(NC(=O)CSc3nnnn3-c3ccc(C(C)(C)C)cc3Cl)c(Cl)c2)CC1 [Compound 4015],40 nM
10,CC(C)(C#Cc1ccc(NC(=O)CSc2nnnn2-c2ccc(C3CC3)cc2Cl)c(Cl)c1)OCCN1CCC(O)CC1 [Compound 4104],64.5 nM
11,CC(C)(C#Cc1ccc(NC(=O)CSc2nnnn2-c2cc(Br)ccc2Cl)c(Cl)c1)C(=O)O [Compound 4218],31.5 nM
12,CC(=O)NC(C)(C)C#Cc1ccc(NC(=O)CSc2nnnn2-c2ccc(C3CC3)cc2Cl)c(Cl)c1 [Compound 4080],8.45 nM
13,CC(C)(C#Cc1ccc(NC(=O)CSc2nnnn2-c2ccccc2Cl)c(Cl)c1)C(=O)O [Compound 4207],442 nM
14,Cc1cc(C#CC(C)(C)C(=O)O)ccc1NC(=O)CSc1nnnn1-c1ccc(C(C)(C)C)cc1Cl [Compound 4057],96 nM
15,CC(C)(C)c1ccc(-n2nnnc2SCC(=O)Nc2ccc(C#CCN3CCOCC3)cc2Cl)c(Cl)c1 [Compound 4010],27 nM
16,CN(C)CC(=O)NC(C)(C)C#Cc1ccc(NC(=O)CSc2nnnn2-c2cc(C(F)(F)F)ccc2Cl)c(Cl)c1 [Compound 4138],43 nM
17,CC(C)(C#Cc1ccc(NC(=O)CSc2nnnn2-c2ccc(C(C)(C)C)cc2Cl)c(Cl)c1)OCC(=O)NNC(N)=O [Compound 4056],26 nM
18,CC(C)(C#Cc1ccc(NC(=O)CSc2nnnn2-c2ccc(C(C)(C)C)cc2Cl)c(Cl)c1)OCC(=O)NCC(=O)O [Compound 4052],30 nM
19,CC(C)(C#Cc1ccc(NC(=O)CSc2nnnn2-c2cc(C(C)(C)C)ccc2Cl)c(Cl)c1)C(=O)O [Compound 4200],35.5 nM
20,CC(C)(C)c1ccc(-n2nnnc2SCC(=O)Nc2ccc(C#CCCCO)cc2Cl)c(Cl)c1 [Compound 4004],16 nM
21,CC(C)(C#Cc1ccc(NC(=O)CSc2nnnn2-c2ccc(C3CC3)cc2Cl)c(Cl)c1)NC(=O)c1cc[n+]([O-])cc1 [Compound 4086],12 nM
22,CC(C)(C#Cc1ccc(NC(=O)CSc2nnnn2-c2ccc(C3CC3)cc2Cl)c(Cl)c1)OCCN [Compound 4190],59.5 nM
23,CC(C)(C#Cc1ccc(NC(=O)CSc2nnnn2-c2cc(C(C)(C)C)cc(Br)c2Cl)c(Cl)c1)NC(=O)CN1CCNCC1 [Compound 4224],101 nM
24,CC(C)(C#Cc1ccc(NC(=O)CSc2nnnn2-c2ccc(C3CC3)cc2Cl)c(Cl)c1)OCCN1CCS(=O)(=O)CC1 [Compound 4241],30.5 nM
25,CC(C)(C#Cc1ccc(NC(=O)CSc2nnnn2-c2cc(Cl)ccc2Cl)c(Cl)c1)NC(=O)c1cc[n+]([O-])cc1 [Compound 4189],19.5 nM
26,CC(C)(C#Cc1ccc(NC(=O)CSc2nnnn2-c2cc(C(F)(F)F)ccc2Cl)c(Cl)c1F)C(=O)NCCN1CCCC1 [Compound 4160],114 nM
27,CC(C)(C#Cc1ccc(NC(=O)CSc2nnnn2-c2ccc(C3CC3)cc2Cl)c(Cl)c1F)NC(=O)c1cc[n+]([O-])cc1 [Compound 4157],5.95 nM

# Same assay, conditions: IC50 mut, mutant reverse transcriptase, enzymatic assay of Example 24
row,SMILES,IC50
1,CC(C)(C)c1ccc(-n2nnnc2SCC(=O)Nc2ccc(C(=O)NCc3ccco3)cc2Cl)c(Cl)c1 [Compound 6003],13 nM
2,CSCCC(NC(=O)c1ccc(NC(=O)CSc2nnnn2-c2ccc(C(C)(C)C)cc2Cl)c(Cl)c1)C(=O)O (centres unmarked) [Compound 6025],41 nM
3,CC(C)(C)c1ccc(-n2nnnc2SCC(=O)Nc2ccc(OCC(=O)NCc3ccc(N)cc3)cc2Cl)c(Cl)c1 [Compound 5026],86 nM
4,CC(C)(C)c1ccc(-n2nnnc2SCC(=O)Nc2ccc(OCC(=O)Nc3ccc(O)cc3)cc2Cl)c(Cl)c1 [Compound 5013],150 nM
5,Cc1ccc(-n2c(C)cnc2SCC(=O)Nc2ccc(-c3ccc(CC(=O)O)cc3)cc2Cl)c(Cl)c1 [Compound 1009],549 nM
6,COC(=O)Cc1ccc(-c2ccc(NC(=O)CSc3nnnn3-c3ccc(C)cc3Cl)c([N+](=O)[O-])c2)cc1 [Compound 2010],40 nM
7,CC(C)(C)c1ccc(-n2nnnc2SCC(=O)Nc2ccc(C(=O)NCCO)cc2Cl)c(Cl)c1 [Compound 6016],35 nM
8,O=C(CSc1nnnn1-c1cc(C(F)(F)F)ccc1Cl)Nc1ccc(-c2ccc(OCCN3CCCC3)cc2)c(F)c1Cl [Compound 2058],25 nM
9,CC(C)(C)c1ccc(-n2nnnc2SCC(=O)Nc2ccc(-c3ccc(/C=C/C(=O)O)cc3)cc2Cl)c(Cl)c1 [Compound 2032],6.6 nM
10,Cc1ccc(-n2nnnc2SCC(=O)Nc2ccc(-c3ccc(C(=O)O)cc3)cc2Cl)c(Cl)c1 [Compound 2002],53 nM
11,CC(C)(C)c1ccc(-n2nnnc2SCC(=O)Nc2ccc(C(=O)NC(CO)C(=O)O)cc2Cl)c(Cl)c1 (centres unmarked) [Compound 6018],28 nM
12,CC(C)(C)c1ccc(-n2nnnc2SCC(=O)Nc2ccc(OCCN3CCCCC3)cc2Cl)c(Cl)c1 [Compound 3033],201 nM
13,Cc1ccc(-n2nnnc2SCC(=O)Nc2ccc(-c3ccc(CC(=O)NS(C)(=O)=O)cc3)cc2Cl)c(Cl)c1 [Compound 2017],38 nM
14,COC(=O)NS(=O)(=O)c1ccc(NC(=O)CSc2nnnn2-c2ccc(C3CC3)cc2Cl)c(Cl)c1 [Compound 3040],236 nM
15,CC(C)(C)c1ccc(-n2nnnc2SCC(=O)Nc2ccc(OCC(=O)NC(CO)C(=O)O)cc2Cl)c(Cl)c1 (centres unmarked) [Compound 5018],92 nM
16,COC(=O)c1cccc(-c2ccc(NC(=O)CSc3nnnn3-c3ccc(C)cc3Cl)c(Cl)c2)c1 [Compound 3001],146 nM
17,Cc1nnc(SCC(=O)Nc2ccc(-c3ccc(OCC(=O)O)cc3)cc2Cl)n1-c1ccc(C(C)(C)C)cc1Cl [Compound 1001],25.5 nM
18,CC(C)c1ccc(-n2nnnc2SCC(=O)Nc2ccc(-c3ccc(OCCN4CCCC4)cc3)cc2Cl)c(Br)c1 [Compound 2053],24 nM
19,Cc1ccc(-c2c(OCC(=O)Nc3ccc(C#CC(C)(C)O)cc3Cl)n[nH]c2C)c(Cl)c1 [Compound 1016],48 nM
20,CC(C)(C)c1ccc(-n2nnnc2SCC(=O)Nc2ccc(-c3ccc(OCC(=O)O)cc3Cl)cc2Cl)c(Cl)c1 [Compound 3009],154 nM
21,Cc1ccc(-n2nnnc2SCC(=O)Nc2ccc(-c3coc(C)n3)cc2Cl)c(Cl)c1 [Compound 3017],308 nM
22,Cc1ccc(-c2nnsc2SCC(=O)Nc2ccc(-c3ccc(CC(=O)O)cc3)cc2Cl)c(Cl)c1 [Compound 1007],107 nM
23,CC(C)(C)c1ccc(-n2nnnc2SCC(=O)Nc2ccc(OCC(=O)Nc3ccc(CC(=O)O)cc3)cc2Cl)c(Cl)c1 [Compound 5023],38 nM
24,CC(C)(C)c1ccc(-n2nnnc2SCC(=O)Nc2ccc(OCC(=O)NC[C@H]3CC[C@H](C(=O)O)CC3)cc2Cl)c(Cl)c1 [Compound 5031],118 nM
25,O=C(COc1ccc(NC(=O)CSc2nnnn2-c2ccc(C3CC3)cc2Cl)c(Cl)c1)NCCc1cccnc1 [Compound 5035],258 nM
